Experimental data from the supplement of paper PMC10307832.

Legend:
Assay in all cases: relative viability (nuclei count vs DMSO), 5 days (fraction); higher = more cells survive
201T = test system: 201T
Procedure, shortened: (§1)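 Lung cancer cell lines in 1536-well plates got either a single drug or a fixed anchor-drug dose together with five library-drug doses (not always all listed) in √10 steps, by pin tool, on the day after seeding. Nuclei were counted after 5 days, and relative viability is the treated-to-vehicle ratio of nuclei counts. Values are medians of duplicate plates.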

BEN = test system: BEN
Procedure, shortened: as §1

CAL-12T = test system: CAL-12T
Procedure, shortened: as §1

HCC-827 = test system: HCC-827
Procedure, shortened: as §1

LCLC-103H = test system: LCLC-103H
Procedure, shortened: as §1

LCLC-97TM1 = test system: LCLC-97TM1
Procedure, shortened: as §1

LXF-289 = test system: LXF-289
Procedure, shortened: as §1

NCI-H1395 = test system: NCI-H1395
Procedure, shortened: as §1

NCI-H1437 = test system: NCI-H1437
Procedure, shortened: as §1

NCI-H1650 = test system: NCI-H1650
Procedure, shortened: as §1

NCI-H1792 = test system: NCI-H1792
Procedure, shortened: as §1

Nc1ccn([C@@H]2O[C@H](CO)[C@@H](O)[C@@H]2O)c(=O)n1 [Cytarabine] + COc1cccc2cc(-c3nc([C@H]4CC[C@H](C(=O)O)CC4)n4ncnc(N)c34)[nH]c12 [OSI-027] (partner 0.5 µM)
relative viability (201T; first compound 0.005 µM): 0.711 | relative viability (201T; first compound 0.01581 µM): 0.782 | relative viability (201T; first compound 0.05 µM): 0.562 | relative viability (201T; first compound 0.1581 µM): 0.382 | relative viability (201T; first compound 0.5 µM): 0.272 | relative viability (BEN; first compound 0.005 µM): 0.5 | relative viability (BEN; first compound 0.01581 µM): 0.315 | relative viability (BEN; first compound 0.05 µM): 0.309 | relative viability (BEN; first compound 0.1581 µM): 0.263 | relative viability (BEN; first compound 0.5 µM): 0.217 | relative viability (CAL-12T; first compound 0.005 µM): 0.697 | relative viability (CAL-12T; first compound 0.01581 µM): 0.507 | relative viability (CAL-12T; first compound 0.05 µM): 0.524 | relative viability (CAL-12T; first compound 0.1581 µM): 0.233 | relative viability (CAL-12T; first compound 0.5 µM): 0.197 | relative viability (HCC-827; first compound 0.005 µM): 0.467 | relative viability (HCC-827; first compound 0.01581 µM): 0.348 | relative viability (HCC-827; first compound 0.05 µM): 0.265 | relative viability (HCC-827; first compound 0.1581 µM): 0.175 | relative viability (HCC-827; first compound 0.5 µM): 0.159 | relative viability (LCLC-103H; first compound 0.005 µM): 0.412 | relative viability (LCLC-103H; first compound 0.01581 µM): 0.411 | relative viability (LCLC-103H; first compound 0.05 µM): 0.511 | relative viability (LCLC-103H; first compound 0.1581 µM): 0.418 | relative viability (LCLC-103H; first compound 0.5 µM): 0.473 | relative viability (LCLC-97TM1; first compound 0.005 µM): 0.45 | relative viability (LCLC-97TM1; first compound 0.01581 µM): 0.37 | relative viability (LCLC-97TM1; first compound 0.05 µM): 0.439 | relative viability (LCLC-97TM1; first compound 0.1581 µM): 0.191 | relative viability (LCLC-97TM1; first compound 0.5 µM): 0.139 | relative viability (LXF-289; first compound 0.005 µM): 0.671 | relative viability (LXF-289; first compound 0.01581 µM): 0.634 | relative viability (LXF-289; first compound 0.05 µM): 0.419 | relative viability (LXF-289; first compound 0.1581 µM): 0.237 | relative viability (LXF-289; first compound 0.5 µM): 0.113 | relative viability (NCI-H1395; first compound 0.005 µM): 0.592 | relative viability (NCI-H1395; first compound 0.01581 µM): 0.484 | relative viability (NCI-H1395; first compound 0.05 µM): 0.369 | relative viability (NCI-H1395; first compound 0.1581 µM): 0.349 | relative viability (NCI-H1395; first compound 0.5 µM): 0.328 | relative viability (NCI-H1437; first compound 0.005 µM): 0.797 | relative viability (NCI-H1437; first compound 0.01581 µM): 0.584 | relative viability (NCI-H1437; first compound 0.05 µM): 0.541 | relative viability (NCI-H1437; first compound 0.1581 µM): 0.233 | relative viability (NCI-H1437; first compound 0.5 µM): 0.211 | relative viability (NCI-H1650; first compound 0.005 µM): 0.44 | relative viability (NCI-H1650; first compound 0.01581 µM): 0.507 | relative viability (NCI-H1650; first compound 0.05 µM): 0.354 | relative viability (NCI-H1650; first compound 0.1581 µM): 0.311 | relative viability (NCI-H1650; first compound 0.5 µM): 0.259 | relative viability (NCI-H1792; first compound 0.005 µM): 0.757 | relative viability (NCI-H1792; first compound 0.01581 µM): 0.664 | relative viability (NCI-H1792; first compound 0.05 µM): 0.738 | relative viability (NCI-H1792; first compound 0.1581 µM): 0.615 | relative viability (NCI-H1792; first compound 0.5 µM): 0.427
